Laboratory results reported in US11590472B2, “Methods and compositions for on-demand release of ClO2 gas from UV-activated chlorite ion” (Wisconsin Alumni Research Foundation, priority 2015, dated 2023).

Tested on: L. monocytogenes
Assay: Microbial kill on L. monocytogenes inoculated lettuce in pouches
Type: cell-based
Conditions: 5 days post inoculation and packaging
Source text: To verify its efficacy against pathogenic bacteria, pouch samples were sent to Institute of Food Safety and Health (IFSH) for a microbial study where they were filled with 30 grams of lettuce that was inoculated with the L. monocytogenes with an initial count of 7.6E+06 CFU/g. The pouches were the same structure and size as Produce Packaging Example 1. The pouches were exposed to 3 s or 5 s of 254 nm UV radiation and analyzed for the microbial kill at 1 and 5 days. […] The pouches containing the ClO2 additive were either pre humidified to 80% RH or left unconditioned. The moisture required for the chlorine dioxide production in the dry samples came from the lettuce. It was observed that chlorine dioxide was able to attain 4-5 log kill in 5 days post inoculation and packaging.

In the case of `[O][Cl+][O-]` [chlorine dioxide], the “log kill of L. monocytogenes” value is reported as 4-5 log.
